We go through 37 molecules from patent US20030004172A1, “Fused pyrimidinone matrix metalloproteinase inhibitors” (priority 2001, published 2003).

In this assay the target is MMP-13CD (catalytic domain of collagenase-3) (Homo sapiens, UniProt P45452). In words: Thiopeptolide substrate hydrolysis inhibition assay, MMP-13CD. It is filed as biochemical. The conditions noted are these: Table I; thiopeptolide substrate, HEPES pH 7.0, 22° C.; read-out: MMP-13CD IC50. The source says:
Thiopeptolide substrates show virtually no decomposition or hydrolysis at or below neutral pH in the absence of a matrix metalloproteinase enzyme.

pIC50: −log10 of the molar value.

Usually pIC50 stands for the IC50 on a negative log10 scale, so that one unit is a factor of ten.

For `COc1ccc(CCNC(=O)c2cc3c(=O)n(Cc4ccccc4)c(=O)n(C)c3s2)cc1OC` [Example 320, 3-Benzyl-1-methyl-2,4-dioxo-1,2,3,4-tetrahydro-thieno[2,3-d]pyrimidine-6-carboxylic acid[2-(3,4-dimethoxy-phenyl)-ethyl]-amide], the pIC50 was less than 4.00.

`CSc1ccc(COC(=O)c2cc3c(=O)n(Cc4ccccc4)c(=O)n(C)c3s2)cc1` [Example 202, 3-Benzyl-1-methyl-2,4-dioxo-1,2,3,4-tetrahydro-thieno[2,3-d]pyrimidine-6-carboxylic acid 4-methylsulfanyl-benzyl ester]: the pIC50 is 6.44.

With `CCN1CCCC(OC(=O)c2cc3c(=O)n(Cc4ccccc4)c(=O)n(C)c3s2)C1` (stereo not shown) [Example 186, 3-Benzyl-1-methyl-2,4-dioxo-1.2.3.4-tetrahydro-thieno[2,3-d]pyrimidine-6-carboxylic acid 1-ethyl-piperidin-3-yl ester], the pIC50 was 5.35.

Regarding `COc1ccc(CNC(=O)c2cc3c(=O)n(Cc4ccc(-c5noc(=S)[nH]5)cc4)c(=O)n(C)c3s2)cc1` [Example 222, 1-Methyl-2,4-dioxo-3-[4-(5-thioxo-4,5-dihydro-1,2,4-oxadiazol-3-yl)-benzyl]-1,2,3,4-tetrahydro-thieno[2,3-d]pyrimidine-6-carboxylic acid 4-methoxy-benzylamide], the pIC50 was 8.38.

In the case of `COc1ccc(CNC(=O)c2cc3c(=O)n(Cc4ccccc4)c(=O)n(C)c3s2)cc1` [Example 340, 3-Benzyl-1-methyl-2,4-dioxo-1,2,3,4-tetrahydro-thieno[2,3-d]pyrimidine-6-carboxylic acid 4-methoxy-benzylamide], the pIC50 is 6.92.

Turning to `COc1cc(CNC(=O)c2cc3c(=O)n(Cc4ccccc4)c(=O)n(C)c3s2)cc(OC)c1OC` [Example 331, 3-Benzyl-1-methyl-2,4-dioxo-1,2,3,4-tetrahydro-thieno[2,3-d]pyrimidine-6-carboxylic acid 3,4,5-trimethoxy-benzylamide], the pIC50 is less than 4.00.

As for `COc1ccc(CNC(=O)c2cc3c(=O)n(CC=C(C)C)c(=O)n(C)c3s2)cc1` [Example 267], the pIC50 was 5.96.

As to `Cn1c(=O)n(Cc2ccccc2)c(=O)c2cc(C(=O)OCc3ccccc3)oc21` [Example 97, 3-Benzyl-1-methyl-2,4-dioxo-1,2,3,4-tetrahydro-furo[2,3-d]pyrimidine-6-carboxylic acid benzyl ester], the pIC50 is less than 4.00.

Regarding `COc1cccc(CNC(=O)c2cc3c(=O)n(CC4CCCCC4)c(=O)n(C)c3s2)c1` [Example 69, 3-Cylcohexylmethyl-1-methyl-2,4-dioxo-1,2,3,4-tetrahydro-thieno[2,3-d]pyrimidine-6-carboxylic acid-3methoxy-benzylamide], the pIC50 was 7.24.

On to `Cn1c(=O)n(Cc2ccccc2)c(=O)c2cc(C(=O)OCCOCc3ccccc3)sc21` [Example 170, 3-Benzyl-1-methyl-2,4-dioxo-1,2,3,4-tetrahydro-thieno[2,3-d]pyrimidine-6-carboxylic acid 2-benzyloxy-ethyl ester], for which the pIC50 was 6.14.

For `COc1ccc(CNC(=O)c2cc3c(=O)n(CCOc4ccccc4)c(=O)n(C)c3s2)cc1` [Example 275], the negative logarithm of the IC50 (pIC50) was 7.44.

For the molecule `COc1ccc(CCCOC(=O)c2cc3c(=O)n(Cc4ccccc4)c(=O)n(C)c3s2)cc1` [Example 189, 3-Benzyl-1-methyl-2,4-dioxo-1,2,3,4-tetrahydro-thieno[2,3-d]pyrimidine-6-carboxylic acid 3-(4-methoxy-phenyl)-propyl ester], the pIC50 is 5.31.

As for `C=C(Cn1c(=O)c2cc(C(=O)OCc3ccccc3)sc2n(C)c1=O)C(=O)O` [Example 114], the pIC50 is 6.48.

With `COc1ccc(CNC(=O)c2cc3c(=O)n(C(C)c4ccccc4)c(=O)n(C)c3s2)cc1` (stereo not shown) [Example 253], the pIC50 was 6.09.

In the case of `Cc1c(C(=O)OCc2ccccc2)sc2[nH]c(=O)n(Cc3ccc(Br)cc3)c(=O)c12` [Example 301, 3-(4-Bromo-benzyl)-5-methyl-2,4-dioxo-1,2,3,4-tetrahydro-thieno[2,3-d]pyrimidine-6-carboxylic acid benzyl ester], the pIC50 is less than 4.00.

As for `Cn1c(=O)n(Cc2ccccc2)c(=O)c2cc(C(=O)OCCC#N)sc21` [Example 209, 3-Benzyl-1-methyl-2,4-dioxo-1,2,3,4-tetrahydro-thieno[2,3-d]pyrimidine-6-carboxylic acid 2-cyano-ethyl ester], the pIC50 is less than 4.00.

Consider `Cn1c(=O)n(Cc2ccc3c(c2)OCO3)c(=O)c2cc(C(=O)OCc3ccccc3)sc21` [Example 307, 3-1,3-Benzodioxol-5-ylmethyl-1-methyl-2,4-dioxo-1,2,3,4-tetrahydro-thieno[2,3-d]pyrimidine-6-carboxylic acid benzyl ester], for which the pIC50 is 8.28.

`CCC(CC)n1c(=O)c2cc(C(=O)NCc3cccc(OC)c3)sc2n(C)c1=O` [Example 290]: the negative-log IC50 (pIC50) is 4.82.

For the molecule `Cn1c(=O)n(CN2C(=O)c3ccccc3C2=O)c(=O)c2cc(C(=O)OCc3ccccc3)sc21` [Example 117, 3-(1,3-Dioxo-1,3-dihydro-isoindol-2-ylmethyl)-1-methyl-2,4-dioxo-1,2,3,4-tetrahydro-thieno[2,3-d]pyrimidine-6-carboxylic acid benzyl ester], the pIC50 was 7.44.

Turning to `Cn1c(=O)n(Cc2ccccc2)c(=O)c2cc(C(=O)NCc3cccnc3)sc21` [Example 339, 3-Benzyl-1-methyl-2,4-dioxo-1,2,3,4-tetrahydro-thieno[2,3-d]pyrimidine-6-carboxylic acid (pyridin-3-ylmethyl)-amide], the pIC50 is 6.42.

For `Cn1c(=O)n(Cc2ccccc2)c(=O)c2cc(C(=O)NCCc3ccncc3)sc21` [Example 325, 3-Benzyl-1-methyl-2,4-dioxo-1,2,3,4-tetrahydro-thieno[2,3-d]pyrimidine-6-carboxylic acid (2-pyridin-4-yl-ethyl)-amide], the pIC50 was less than 4.00.

In the case of `CCCCCC#CCn1c(=O)c2cc(C(=O)NCc3ccc(OC)cc3)sc2n(C)c1=O` [Example 230, 1-Methyl-3-oct-2-ynyl-2,4-dioxo-1,2,3,4-tetrahydro-thieno[2,3-d]pyrimidine-6-carboxylic acid 4-methoxy-benzylamide], the pIC50 was 7.11.

Consider `Cn1c(=O)n(Cc2ccccc2)c(=O)c2cc(C(=O)NCc3ccc(Br)cc3)sc21` [Example 350, 3-Benzyl-1-methyl-2,4-dioxo-1,2,3,4-tetrahydro-thieno[2,3-d]pyrimidine-6-carboxylic acid 4-bromo-benzylamide], for which the pIC50 is 6.03.

Regarding `COc1ccc(CNC(=O)c2cc3c(=O)n(CCNC(=O)c4ccccc4)c(=O)n(C)c3s2)cc1` [Example 272], the pIC50 was 4.52.

As to `Cn1c(=O)n(Cc2ccccc2)c(=O)c2cc(C(=O)OCCc3ccccn3)sc21` [Example 206, 3-Benzyl-1-methyl-2,4-dioxo-1,2,3,4-tetrahydro-thieno[2,3-d]pyrimidine-6-carboxylic acid 2-pyridin-2-yl-ethyl ester], the pIC50 is 4.82.

On to “3-Benzyl-1-methyl-2,4-dioxo-1,2,3,4-tetrahydro-thieno[2,3-d]pyrimidine-6-carboxylic acid 2,2,2-trifluoro-1-trifluoromethyl-ethyl ester [Example 168]”, for which the pIC50 was 4.60.

On to `COc1ccc(CNC(=O)c2cc3c(=O)n(CCOc4ccc(F)cc4)c(=O)n(C)c3s2)cc1` [Example 234, 3-[2-(4-Fluoro-phenoxy)-ethyl]-1-methyl-2,4-dioxo-1,2,3,4-tetrahydro-thieno[2,3-d]pyrimidine-6-carboxylic acid 4-methoxy-benzylamide], for which the pIC50 was 6.82.

For `CC/C=C/Cn1c(=O)c2cc(C(=O)NCc3ccc(OC)cc3)sc2n(C)c1=O` [Example 260], the pIC50 was 7.20.

Consider `C/C=C/Cn1c(=O)c2cc(C(=O)NCc3cccc(OC)c3)sc2n(C)c1=O` [Example 284], for which the pIC50 was 5.82.

Take `Cn1c(=O)n(Cc2ccc(-c3nnn[nH]3)cc2)c(=O)c2cc(C(=O)NCc3ccc(F)cc3)sc21` [Example 87, 1-Methyl-2,4-dioxo-3-[4-(1H-tetrazol-5-yl)-benzyl]-1,2,3,4-tetrahydro-thieno[2,3-d]pyrimidine-6-carboxylic acid 4-fluoro-benzylamide]: the pIC50 is 7.73.

On to `Cn1c(=O)n(Cc2ccccc2CS(=O)(=O)c2ccccc2)c(=O)c2cc(C(=O)OCc3ccccc3)sc21` [Example 137, 3-(2-Benzenesulfonylmethyl-benzyl)-1-methyl-2,4-dioxo-1,2,3,4tetrahydro-thieno[2,3-d]pyrimidine-6-carboxylic acid benzyl ester], for which the negative-log IC50 (pIC50) was 5.08.

Regarding `COc1cccc(CNC(=O)c2cc3c(=O)n(CCSc4ccccc4)c(=O)n(C)c3s2)c1` [Example 287], the pIC50 was 5.72.

Take `COc1ccc(CNC(=O)c2cc3c(=O)n(CCSc4ccccc4)c(=O)n(C)c3s2)cc1` [Example 261]: the pIC50 was 6.24.

`COc1cc(COC(=O)c2cc3c(=O)n(Cc4ccccc4)c(=O)n(C)c3s2)cc(OC)c1` [Example 183, 3-Benzyl-1-methyl-2,4-dioxo-1,2,3,4-tetrahydro-thieno[2,3-d]pyrimidine-6-carboxylic acid 3,5-dimethoxy-benzyl ester]: the pIC50 was 4.52.

Consider `Cn1c(=O)n(Cc2ccccc2)c(=O)c2cc(C(=O)OC(C#N)c3ccccc3)sc21` (stereo not shown) [Example 211, 3-Benzyl-1-methyl-2,4-dioxo-1,2,3,4-tetrahydro-thieno[2,3-d]pyrimidine-6-carboxylic acid cyano-phenyl-methyl ester], for which the negative-log IC50 (pIC50) is 5.68.

As for `COCN1C(=O)c2ccc(Cn3c(=O)c4cc(C(=O)NCc5ccc(OC)cc5)sc4n(C)c3=O)cc2S1(=O)=O` [Example 229, 3-(2-Methoxymethyl-1,1,3-trioxo-2,3-dihydro-1H-1l^6l-1,2-benzisothiazol-6-ylmethyl)-1-methyl-2,4-dioxo-1,2,3,4-tetrahydro-thieno[2,3-d]pyrimidine-6-carboxylic acid 4-methoxy-benzylamide], the pIC50 was 6.17.

For the molecule `COC(=O)Nc1cc(Cn2c(=O)c3cc(C(=O)NCc4ccc(OC)cc4)sc3n(C)c2=O)on1` [Example 276], the pIC50 is 6.64.
